Test system: P12-Ichikawa
Experiment: cell viability relative to DMSO control; higher = less cytotoxic
Settings: 48 h
Procedure, shortened: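 In 1536-well plates, 5 μl of leukemia cells were seeded per well: 500 cells/well for NOMO1 or SEM and 1000 cells/well for P12-Ichikawa. Each line had first been adapted for at least four passages in each medium. Library compounds in DMSO were pin-dosed at 11 threefold concentrations between 47 μM and 0.79 nM, and CellTiter-Glo One luminescence was read after 48 h at 37°C. Viability is a per-plate percentage relative to DMSO wells, with cell-free wells as background.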

[1] = HPLM + 10% dialyzed FBS, 0.000781 µM
[2] = HPLM + 10% dialyzed FBS, 0.00234 µM
[3] = HPLM + 10% dialyzed FBS, 0.00702 µM
[4] = HPLM + 10% dialyzed FBS, 0.0211 µM
[5] = HPLM + 10% dialyzed FBS, 0.0632 µM
[6] = HPLM + 10% dialyzed FBS, 0.19 µM
[7] = HPLM + 10% dialyzed FBS, 0.569 µM
[8] = HPLM + 10% dialyzed FBS, 1.71 µM
[9] = HPLM + 10% dialyzed FBS, 5.12 µM
[10] = HPLM + 10% dialyzed FBS, 15.4 µM
[11] = HPLM + 10% dialyzed FBS, 46.1 µM
[12] = RPMI 5 mM glucose + 10% FBS, 0.000781 µM
[13] = RPMI 5 mM glucose + 10% FBS, 0.00234 µM
[14] = RPMI 5 mM glucose + 10% FBS, 0.00702 µM
[15] = RPMI 5 mM glucose + 10% FBS, 0.0211 µM
[16] = RPMI 5 mM glucose + 10% FBS, 0.0632 µM
[17] = RPMI 5 mM glucose + 10% FBS, 0.19 µM
[18] = RPMI 5 mM glucose + 10% FBS, 0.569 µM
[19] = RPMI 5 mM glucose + 10% FBS, 1.71 µM
[20] = RPMI 5 mM glucose + 10% FBS, 5.12 µM
[21] = RPMI 5 mM glucose + 10% FBS, 15.4 µM
[22] = RPMI 5 mM glucose + 10% FBS, 46.1 µM
[23] = RPMI 5 mM glucose + 10% dialyzed FBS, 0.000781 µM
[24] = RPMI 5 mM glucose + 10% dialyzed FBS, 0.00234 µM
[25] = RPMI 5 mM glucose + 10% dialyzed FBS, 0.00702 µM
[26] = RPMI 5 mM glucose + 10% dialyzed FBS, 0.0211 µM
[27] = RPMI 5 mM glucose + 10% dialyzed FBS, 0.0632 µM
[28] = RPMI 5 mM glucose + 10% dialyzed FBS, 0.19 µM
[29] = RPMI 5 mM glucose + 10% dialyzed FBS, 0.569 µM
[30] = RPMI 5 mM glucose + 10% dialyzed FBS, 1.71 µM
[31] = RPMI 5 mM glucose + 10% dialyzed FBS, 5.12 µM
[32] = RPMI 5 mM glucose + 10% dialyzed FBS, 15.4 µM
[33] = RPMI 5 mM glucose + 10% dialyzed FBS, 46.1 µM

| SMILES | cell viability [1] [%] | cell viability [2] [%] | cell viability [3] [%] | cell viability [4] [%] | cell viability [5] [%] | cell viability [6] [%] | cell viability [7] [%] | cell viability [8] [%] | cell viability [9] [%] | cell viability [10] [%] | cell viability [11] [%] | cell viability [12] [%] | cell viability [13] [%] | cell viability [14] [%] | cell viability [15] [%] | cell viability [16] [%] | cell viability [17] [%] | cell viability [18] [%] | cell viability [19] [%] | cell viability [20] [%] | cell viability [21] [%] | cell viability [22] [%] | cell viability [23] [%] | cell viability [24] [%] | cell viability [25] [%] | cell viability [26] [%] | cell viability [27] [%] | cell viability [28] [%] | cell viability [29] [%] | cell viability [30] [%] | cell viability [31] [%] | cell viability [32] [%] | cell viability [33] [%] |
| --- | --- | --- | --- | --- | --- | --- | --- | --- | --- | --- | --- | --- | --- | --- | --- | --- | --- | --- | --- | --- | --- | --- | --- | --- | --- | --- | --- | --- | --- | --- | --- | --- | --- |
| c1ccc2c(-c3cnn4cc(-c5ccc(N6CCNCC6)cc5)cnc34)ccnc2c1 | 97.9 | 103 | 150 | 144 | 151 | 141 | 146 | 126 | 125 | 121 | 59.3 | 88.7 | 91.2 | 161 | 182 | 191 | 166 | 142 | 123 | 111 | 107 | 2.89 | 96 | 96.6 | 175 | 169 | 168 | 164 | 168 | 138 | 119 | 120 | 3.35 |
| O=P(O)(O)C(O)(Cc1cccnc1)P(=O)(O)[O][Na] (configuration not stated) | 88.6 | 81.8 | 99.2 | 11.3 | 95.5 | 94.2 | 105 | 100 | 105 | 105 | 110 | 87.4 | 98.6 | 98.9 | 16.4 | 94.5 | 98.3 | 100 | 107 | 108 | 118 | 112 | 85.3 | 91.3 | 91.2 | 17.4 | 97.7 | 100 | 95.1 | 103 | 100 | 104 | 104 |
| COc1cc(/C=C/C(=O)CC(=O)/C=C/c2ccc(O)c(OC)c2)ccc1O | 99.1 | 96.9 | 108 | 104 | 110 | 105 | 109 | 106 | 96.4 | 27.8 | 5.27 | 102 | 104 | 98.4 | 113 | 113 | 110 | 105 | 104 | 99.1 | 61.2 | 4.23 | 98.8 | 102 | 105 | 110 | 104 | 98.2 | 104 | 113 | 102 | 60.3 | 4.18 |
| CCOP(=O)(OCC)C(C)NC(=O)N(CCCl)N=O (configuration not stated) | 122 | 116 | 132 | 119 | 124 | 130 | 123 | 123 | 128 | 130 | 141 |  |  |  |  |  |  |  |  |  |  |  |  |  |  |  |  |  |  |  |  |  |  |
| COc1ccc(-c2c(-c3ccc(O)cc3O)n[nH]c2C)cc1 | 108 | 101 | 117 | 112 | 114 | 106 | 112 | 107 | 105 | 101 | 78.1 | 99.8 | 105 | 105 | 100 | 110 | 106 | 105 | 112 | 102 | 95.6 | 68.6 | 101 | 106 | 110 | 111 | 107 | 113 | 113 | 113 | 105 | 101 | 89.5 |
| COc1ccc(-c2nc3cc(C4=NNC(=O)CC4C)ccc3[nH]2)cc1 (configuration not stated) | 104 | 105 | 109 | 113 | 107 | 114 | 108 | 114 | 105 | 106 | 98.7 | 103 | 110 | 110 | 111 | 115 | 105 | 108 | 105 | 113 | 111 | 117 | 88.3 | 98.5 | 104 | 103 | 108 | 93.2 | 102 | 104 | 109 | 110 | 84.1 |
| COc1ccc2cc(-c3[nH]c(-c4ccc([S+](C)[O-])cc4)nc3-c3ccncc3)ccc2c1 (configuration not stated) | 113 | 114 | 116 | 105 | 117 | 119 | 124 | 120 | 123 | 112 | 99.3 | 105 | 112 | 118 | 120 | 130 | 127 | 128 | 130 | 142 | 120 | 80.7 | 104 | 113 | 105 | 118 | 119 | 117 | 124 | 128 | 120 | 122 | 57.6 |
| Cn1cc(-c2ccncc2)c(-c2ccc(OCc3ccc4ccccc4n3)cc2)n1 | 120 | 121 | 122 | 121 | 126 | 123 | 115 | 118 | 109 | 91.5 | 75.5 | 121 | 127 | 120 | 132 | 122 | 121 | 120 | 120 | 104 | 65.8 | 53.7 |  |  |  |  |  |  |  |  |  |  |  |
| CC1(C)O[C@H]2CC(=O)OC[C@]23[C@H]2CC[C@@]4(C)[C@H](c5ccoc5)OC(=O)[C@H]5O[C@]54[C@]2(C)C(=O)C[C@@H]13 | 95.9 | 107 | 101 | 105 | 110 | 110 | 115 | 102 | 115 | 99.5 | 110 | 88.3 | 102 | 102 | 93.8 | 98.4 | 107 | 106 | 95.6 | 107 | 105 | 112 | 90.8 | 96.2 | 104 | 97.6 | 105 | 95.2 | 101 | 100 | 96.1 | 98.2 | 96.7 |
| C=C1C[C@@]2(O)O[C@@]3(C[C@H]2C(C)C)[C@@H](C)CC[C@@H]13 | 110 | 119 | 112 | 129 | 117 | 123 | 122 | 112 | 117 | 125 | 118 | 113 | 127 | 114 | 126 | 129 | 134 | 119 | 123 | 122 | 128 | 132 | 112 | 109 | 116 | 117 | 122 | 135 | 113 | 125 | 121 | 127 | 128 |
| CC1=C2N=C([NH]C2=CC(=C1)N3CCOCC3)\C4=C(NC[C@@H](O)C5=CC=CC(=C5)Cl)\C=C/NC4=O | 102 | 104 | 103 | 109 | 113 | 110 | 112 | 115 | 106 | 100 | 90.8 | 104 | 108 | 106 | 109 | 115 | 114 | 119 | 117 | 117 | 106 | 85.6 | 101 | 117 | 120 | 118 | 116 | 119 | 120 | 128 | 110 | 105 | 85.7 |
| NC12CC3CC(CC(C3)C1)C2 | 109 | 98.8 | 103 | 103 | 105 | 111 | 108 | 103 | 117 | 114 | 105 | 102 | 119 | 118 | 120 | 119 | 123 | 112 | 113 | 110 | 109 | 107 | 104 | 113 | 109 | 111 | 115 | 116 | 115 | 118 | 115 | 105 | 103 |
| c1cc(-c2sc(-c3ccncc3)c(-c3ccncc3)c2-c2ccncc2)ccn1 | 101 | 109 | 108 | 115 | 121 | 123 | 118 | 107 | 110 | 112 | 106 | 97.9 | 114 | 102 | 113 | 121 | 123 | 121 | 126 | 110 | 112 | 104 | 97.3 | 111 | 109 | 117 | 115 | 120 | 124 | 118 | 111 | 113 | 98.9 |
| COc1ccc(CCC(=O)Nc2nc3ccc(Cl)cc3s2)cc1OC | 106 | 106 | 106 | 112 | 111 | 107 | 110 | 102 | 104 | 99.3 | 98.6 | 109 | 118 | 94.9 | 114 | 111 | 110 | 110 | 108 | 109 | 107 | 92.1 | 113 | 94.1 | 105 | 113 | 110 | 105 | 99.7 | 105 | 103 | 91.9 | 92.6 |
| CC(C)[C@@H](N(CCCN)C(=O)C1=CC=C(C)C=C1)C/2=C(\CC3=CC=CC=C3)C(=O)C4=C(O2)C=C(Cl)C=C4 | 37.7 | 12.6 | 11.5 | 14.2 | 9.91 | 11.7 | 12.2 | 11 | 10.3 | 11.8 | 12.8 | 18.4 | 15.8 | 15 | 18.5 | 18 | 17.6 | 14 | 17.7 | 15.8 | 15.7 | 9.01 | 70.7 | 20.4 | 20.7 | 21.9 | 22.4 | 22.5 | 18.6 | 20.9 | 21.2 | 19.8 | 16.2 |

Source: the supplement of paper PMC11451515
